{"source": "patent US8163287B2", "about": "“Combination therapy of her expressing tumors” (Genentech, Inc., priority 2005, dated 2012)", "key": {"[1]": {"test_system": "lung adenocarcinoma designated LXFA 629", "assay": "Antitumor activity in the LXFA 629 xenograft", "assay_type": "in vivo, NMRI nu/nu nude mice", "settings": "each agent alone; pertuzumab i.p. 100 mg/kg, erlotinib orally 25 mg/kg", "description": "(§1) The tumor models were established by implanting tumor tissues obtained from human patients into randomized NMRI nu/nu nude mice (Oncotest GmbH, Freiburg, Germany) and tumors were propagated until stable tumor growth behavior was observed. After removal of the tumor from the donor mice, the tumor was cut into fragments (2 mm diameter) and placed in RPMI 1640 culture medium until subcutaneous implantation in the mice. The tumor fragments (two per mouse) were transplanted by tweezers. The mice were monitored daily.\n(§2) The substance was diluted with a buffer containing 10 mM L-histidine, 240 mM sucrose, 0.02% polysorbate 20 pH 6 (HCl). The solutions were prepared fresh daily. Erlotinib was delivered as a ready-to-use formulation dissolved in 6% captisol.\nErlotinib was administered orally (25 mg/kg). […]\n(§3) The antitumor effect was evaluated following maximum tumor inhibition versus the control group.\nTumor volumes were determined by two-dimensional measurement with a caliper at the day of randomization (day 0) and then 2-3 times weekly. The tumor volume was calculated using the following formula: Tumor Volume=(a×b^2)×0.5, […]\nRelative tumor volumes (RTV) were calculated for each individual tumor, by dividing the tumor volume on day X (Vx) by the tumor volume on day 0 (V0) multiplied by 100%. The tumor volume of a treatment group was expressed as the median RTV of all mice of the group. […]"}, "[2]": {"test_system": "human lung, breast and ovarian cancer xenograft models", "assay": "Antitumor activity in human cancer xenograft models (26 tumor xenografts)", "assay_type": "in vivo, NMRI nu/nu nude mice", "settings": "for tumors responsive to both erlotinib and pertuzumab: of 26 tumors (12%); for tumors that did not respond to treatment with either pertuzumab or erlotinib: of the 26 tumors tested (42%), pertuzumab i.p. 100 mg/kg, erlotinib orally 25 mg/kg", "description": "as §1, §2\nErlotinib was administered orally (25 mg/kg). The control mice received the vehicle by the same procedure and on the same schedule as the test compound.\nas §3\nTumor volumes were determined by two-dimensional measurement with a caliper at the day of randomization (day 0) and then 2-3 times weekly. The tumor volume was calculated using the following formula: Tumor Volume=(a×b^2)×0.5,\nwhere a and b represent two perpendicular tumor diameters, a=length (longer diameter), b=width (shorter diameter). All mice of a treatment group were sacrificed when the tumors reached mean diameters of approximately 16 mm.\nRelative tumor volumes (RTV) were calculated for each individual tumor, by dividing the tumor volume on day X (Vx) by the tumor volume on day 0 (V0) multiplied by 100%. The tumor volume of a treatment group was expressed as the median RTV of all mice of the group. Median RTV volumes were used for drawing growth curves and treatment evaluation.\nOptimal tumor growth inhibition at a particular day within the experimental period was calculated from the median RTV values of the test versus control groups multiplied by 100% (T/C 100%).\nRelative tumor volume (Tx/T0) was defined as the median relative tumor volume of the test group on day X divided by the medium relative tumor volume of the test group on day 0, multiplied by 100.\nT/C % and Tx/T0 were used for activity rating of the levels of efficacy, which were defined as follows: […]"}, "[3]": {"test_system": "incurable, locally advanced, recurrent or metastatic solid tumors", "settings": "cited from earlier work"}, "[4]": {"settings": "cited from earlier work"}}, "data": [{"compound": "C#Cc1cccc(Nc2ncnc3cc(OCCOC)c(OCCOC)cc23)c1", "note": "[erlotinib, N-(3-ethynylphenyl)-6,7-bis(2-methoxyethoxy)-4-quinazolinamine]", "values": [{"measurement": "activity rating (response to monotherapy)", "setting": "[1]", "result": "moderate response"}, {"measurement": "NSCLC tumors that responded to erlotinib but not to pertuzumab", "setting": "[2]; NSCLC only, of 21 (23%)", "result": 5, "unit": "tumors"}, {"measurement": "NSCLC tumors with no response to pertuzumab or erlotinib monotherapy", "setting": "[2]; NSCLC only, out of the 21 tumors tested (43%)", "result": 9, "unit": "tumors"}, {"measurement": "tumors responsive to both erlotinib and pertuzumab", "setting": "[2]; monotherapy", "result": 3, "unit": "tumors"}, {"measurement": "tumors moderately responsive to erlotinib, but not pertuzumab", "setting": "[2]; monotherapy, of 26 tumors (27%)", "result": 7, "unit": "tumors"}, {"measurement": "tumors that did not respond to treatment with either pertuzumab or erlotinib", "setting": "[2]; monotherapy", "result": 11, "unit": "tumors"}]}, {"compound": "pertuzumab: antibody comprising the light and heavy chain amino acid sequences of SEQ ID NOS. 11 and 12; HER dimerization inhibitor", "values": [{"measurement": "confirmed partial responses", "setting": "[3]; Phase I, single agent", "result": "Two"}, {"measurement": "tumor regression achieved", "setting": "[3]; of 20 patients evaluable for response", "result": 3, "unit": "patients"}, {"measurement": "tolerability", "setting": "[3]; patients, intravenously every 3 weeks", "result": "generally well tolerated"}, {"measurement": "pharmacokinetics (dose linearity)", "setting": "[4]; doses of 2.0-15 mg/kg", "result": "linear"}, {"measurement": "antibodies to pertuzumab", "setting": "[4]; patients", "result": "not detected"}, {"measurement": "NSCLC tumors that responded to pertuzumab but not erlotinib", "setting": "[2]; NSCLC only, of 21 (14%)", "result": 3, "unit": "tumors"}, {"measurement": "tumors responsive to both erlotinib and pertuzumab", "setting": "[2]; monotherapy", "result": 3, "unit": "tumors"}, {"measurement": "tumors that did not respond to treatment with either pertuzumab or erlotinib", "setting": "[2]; monotherapy", "result": 11, "unit": "tumors"}]}]}
